Converted amounts (≈) assume the structure as drawn. “Also recorded” adds a separate entry of the source.
Key:
adult S. mansoni = test: Phenotypic screen of adult S. mansoni worms, severity scores and descriptors; format: cell-based, Schistosoma mansoni; conditions: for Descriptors (10 µM) 1 h / Severity Scores (10 μM) 1 h / Severity Scores (10 μM) 5 h / Severity Scores (10 μM) 24 h / Descriptors (10 µM) 48 h / Severity Scores (10 μM) 48 h / Descriptors (10 µM) 5 h / Descriptors (10 µM) 24 h: adult S. mansoni; for Descriptors (10 µM) 1 h / Descriptors (10 µM) 48 h / Descriptors (10 µM) 5 h / Descriptors (10 µM) 24 h: phenotypic descriptors; for Severity Scores (10 μM) 1 h / Severity Scores (10 μM) 5 h / Severity Scores (10 μM) 24 h / Severity Scores (10 μM) 48 h: scale 0 (no activity) to 4 (maximal activity); for bioactivity against adult S. mansoni: adult schistosomes; for Severity Scores (10 μM) 1 h / Severity Scores (10 μM) 5 h / Severity Scores (10 μM) 24 h / Severity Scores (10 μM) 48 h / bioactivity against adult S. mansoni: 10 μM
From the text: Because the schistosome parasite can present multiple and dynamic phenotypic responses to chemical insult,[16] we employ a constrained nomenclature of descriptors to describe the changes in the parasite as a function of time and concentration (e.g., motility, density, and shape; and in the case of the adult parasite, an inability to adhere to the bottom of the assay dish). These descriptors are converted into severity scores on a scale of 0 (green)–4 (severest/red) that allow for partially quantitative comparisons of compound effects.[1]−[19] […] The descriptors themselves and their respective scores are detailed in the Supporting Information, Table S1. Severity score data are presented in the results (with the corresponding descriptors detailed in the Supporting Information, Tables S2–S8), and eight new analogs developed and synthesized in support of this effort are described. Finally, absorption, distribution, metabolism and excretion (ADME) data of all compounds presented in this work are reported in the Supporting Information, Table S15.
Table S1. Descriptors and associated severity scores used for S. mansoni adults.
R (rounded or shape altered 1
On sides (adults unable to 1
Shrunk (adults are shorter 1
surface (tegument) of adults)
dfailed to create analytical method
Maintenance of the Schistosoma mansoni life cycle (NMRI isolate), the preparation of adult worms (≥ 42-
days-old), and their co-incubation with test compounds were as described.7-9 Phenotypic responses were
visually recorded using a constrained nomenclature and converted to severity scores on a scale from zero
(no activity) to 4 (maximal activity).8, 9 Use of hamsters for maintaining the S. mansoni life-cycle was
approved by the Institutional Animal Care and Use Committee of the University of California San Diego.
The human myelomonocytic cell line THP -1 was grown at 37 °C and 5% CO2 in RPMI-1640 supplemented
with 10% iFBS, 2 mM glutamate, 100 U/mL penicillin and […] streptomycin.
Drug toxicity to HepG2 cells .10 HepG2 cells line were obtained from the American Type Culture
Collection and cultured in Minimal Essential Medium (MEM) supplemented with 0.19% sodium
bicarbonate, 10% Fetal Bovine Serum, 2 mM L -glutamine, 0.1 mM MEM non-essential amino, 0.009
mg/mL insulin, 1.76 mg/mL bovine serum albumin. The viability of the cells was measured using the MTT
(thiazolyl blue reduction) method. Briefly, ninety -six-well plates were seeded with 2.5 × 10^4 cells/well in
170 ml of culture medium and incubated overnight in 5% CO 2 at 37 °C. Cells were exposed to different
experimental compounds in DMSO. After 48 hours incubation, the viability of the cells was assessed using
MTT (thiazolyl blue reduction) as a dose response assay (11 two -fold serial dilutions) to obtain a calculated
IC50 determination. 4-Azaindolo[2,1-b]quinazoline-6,12-dione is used as a toxicity positive control and
each assay plate includes the following 3 additional controls: a) background control: no cells and no drug
was added, b) target control: cells added but no drugs, and c) DMSO control: same as the target control
except the culture media contains 0.6% DMSO. Absorbance was determined in all wells using a Perkin
Elmer, Ensight plate reader. The fifty percent inhibitory concentrations (IC50’s) were determined using
GraphPad Prism nonlinear regr ession (sigmoidal dose -response, variable slope) equation .
ADME Experiment Protocols
Aqueous pH 7.4 Solubility. Compounds were dried down from 10 mM DMSO solutions using centrifugal
evaporation technique. Phosphate buffer (0.1 M pH 7.4) was added and StirStix were inserted in the glass
vials, with shaking then performed at a constant temperature of 25 °C for 20 -24 h. This step was followed
by double centrifugation with a tip wash in between, to ensure that no residues of the dried compounds
interfere. The solutions were diluted before analysis and quantification using LC/MS/MS was performed.

Rat hepatocyte Clint = format: in vitro ADME; conditions: rat hepatocytes, intrinsic clearance; read-out: RH CLint
[1] = Human liver microsomal Clint; format: in vitro ADME; conditions: human liver microsomes, intrinsic clearance; read-out: HLM Clint
[2] = Log D7.4 shake-flask octanol-water; format: physicochemical; conditions: pH 7.4
Protocol: Log D7.4. Shake-flask octanol-water distribution coefficient was determined at pH 7.4 (Log D7.4). The aqueous solution used is 10 mM sodium phosphate pH 7.4 buffer. The method has been validated for Log D7.4 ranging from -2 to 5.0.
Human Plasma Protein Binding (PPB). PPB was determined using equilibrium dialysis (RED device) to separate free from bound compound. The amount of compound in plasma (10 µM initial concentration) and in dialysis buffer (pH 7.4 phosphate buffer) was measured by LC-MS/MS after equilibration at 37 °C in a dialysis chamber. The fraction unbound (fu) is reported.
Human Liver Microsomal Clint. In vitro intrinsic clearance was determined from human liver microsomes using a standard approach.11 Following incubation and preparation, the samples were analyzed using […]
Rat Hepatocyte Clint. In vitro intrinsic clearance was determined from rat hepatocytes using a standard approach.11 Following incubation and preparation, the samples were analyzed using LC/MS/MS. Refined […]
Calculated LogP and LogD values. Both LogP and LogD predictions are based on a modified version of the method12 where the predicted partition coefficients are composed of the molecules’ atomic increments.
General Chemistry. All starting materials were commercially obtained and were used without further purification, unless specified. Reaction solvents were purified by passage through alumina columns on a purification system manufactured by Innovative Technology (Newburyport, MA). NMR spectra were obtained on Varian NMR systems, operating at 400 or 500 MHz for 1 H acquisitions. LCMS analysis was performed using a Waters AllianceHT e2795 reverse phase HPLC (Waters SunFire C18 4.6 × 50 mm, 3.5 μm column), with a Waters 2996 photodiode array detector scanning from 210 nm to 600 nm, and Waters Micromass ZQ detector (electrospray ionization). Where required, final compounds were purified by preparative reverse phase HPLC (columns Waters Symmetry RP8 30 × 50 mm, 5 μm column, or OBD RP18 30 × 50 mm, 5 μm), with a single wavelength UV−visible detector and Waters Micromass ZQ (electrospray ionization).

[3] = Aqueous pH 7.4 solubility; format: physicochemical; conditions: aqueous buffer, thermodynamic from solid; phosphate buffer pH 7.4, 25 °C, 20-24 h; read-out: aq sol (aqueous solubility)

| hepatocyte CLint (Rat hepatocyte Clint) [µL/min/1e6 cells] | microsomal CLint [1] [µL/min/mg] | logD [2] | solubility [3] [µM] | SMILES | Descriptors (10 µM) 1 h (adult S. mansoni) | Severity Scores (10 μM) 1 h (adult S. mansoni) | Severity Scores (10 μM) 5 h (adult S. mansoni) | Severity Scores (10 μM) 24 h (adult S. mansoni) | Descriptors (10 µM) 48 h (adult S. mansoni) | Severity Scores (10 μM) 48 h (adult S. mansoni) | bioactivity against adult S. mansoni (adult S. mansoni) | Descriptors (10 µM) 5 h (adult S. mansoni) | Descriptors (10 µM) 24 h (adult S. mansoni) |
| --- | --- | --- | --- | --- | --- | --- | --- | --- | --- | --- | --- | --- | --- |
| 45 | > 300 | 3.5 | – | CCN1CCN(c2ncc(-c3ccc4c(Nc5cnccn5)ccnc4c3)cn2)CC1 [4b] | none | 0 | 1 | 1 | S, on sides | 2 | activity after 5 h | – | – |
| 230 | 220 | 3.5 | – | COC(=O)C1CCCN1c1ncc(-c2ccc3c(Nc4cnccn4)ccnc3c2)cn1 (stereo not shown) [3d] | none | 0 | 0 | 3 | – | 4 | bioactivity after 24 h, progressing to the severest response by 48 h | none | – |
| 23 | – | 2 | – | CN1CCN(c2ncc(-c3ccc4c(NCC5CCOCC5)ccnc4c3)cn2)CC1 [S1e] | none | 0 | 0 | 0 | – | 1 | no significant bioactivity | none | none |
| 32 | > 300 | 3.3 | – | CCCN1CCCN(c2ncc(-c3ccc4c(Nc5cnccn5)ccnc4c3)cn2)CC1 [4f] | none | 0 | 0 | 0 | none | 0 | – | none | none |
| 8.9 | – | 0.7 | – | O=C(O)CN1CCN(c2ncc(-c3ccc4c(Nc5cnccn5)ccnc4c3)cn2)CC1 [3b] | none | 0 | 0 | 0 | none | 0 | no bioactivity | none | none |
| 19 | 110 | – | 35 (≈ 14.3 µg/mL) | CN1CCCN(c2ncc(-c3ccc4c(c3)ncc3c5ccccc5[nH]c43)cn2)CC1 [6b] | none | 0 | 1 | 1 | – | 4 | minimal bioactivity after 5 h; also recorded: potent activity after 48 h | – | – |
| 17 | – | 2.2 | – | CN1C[C@H]2C[C@@H]1CN2c1ncc(-c2ccc3c(Nc4cnccn4)ccnc3c2)cn1 [4a] | none | 0 | 0 | 1 | – | 1 | minimal bioactivity was observed after 48 h | none | – |
| 4.2 | – | 0.3 | – | CN1CCN(c2ncc(-c3ccc4c(NC5CCC(N(C)C)CC5)ccnc4c3)cn2)CC1 (stereo not shown) [S1a] | none | 0 | 0 | 0 | – | – | no significant bioactivity | none | none |
| < 1 | < 3 | 0.1 | – | O=C(O)C1CCCN1c1ncc(-c2ccc3c(Nc4cnccn4)ccnc3c2)cn1 (stereo not shown) [3c] | none | 0 | 0 | 0 | none | 0 | no bioactivity | none | none |
| 32 | > 300 | 4.7 | – | CC(C)(C)OC(=O)N1CCN(c2ncc(-c3ccc4c(Nc5cnccn5)ccnc4c3)cn2)CC1 [3a] | none | 0 | 0 | 0 | none | 0 | no bioactivity | none | none |
| 24 | – | 2.9 | – | Cc1cnc(Nc2ccnc3cc(-c4cnc(N5CCCN(C)CC5)nc4)ccc23)cn1 [5b] | none | 0 | 0 | 3 | – | 4 | bioactivity recorded after 24 h | none | Dark, S, on sides |
| > 300 | > 300 | 4.1 | – | CN(CCNc1ncc(-c2ccc3c(Nc4cnccn4)ccnc3c2)cn1)C(=O)OC(C)(C)C [3e] | none | 0 | 0 | 0 | – | 4 | maximal phenotypic response after 48 h | none | none |
